For 13 compounds, GI50 results are on record in patent US12297194B2, “N2-phenylpyrimidine-2,4-diamine compounds, and preparation methods and methods of use thereof” (BRIDGE BIOTHERAPEUTICS, INC., priority 2021, dated 2025).

What all share (assay type): cell-based, murine
Test [1] addresses Ba/F3 EGFR Wild-type (Homo sapiens, UniProt P00533). The experiment in a line: CellTiter-Glo cell viability, Ba/F3 EGFR wild-type cells. The note with it: 72 hours, read-out: Ba/F3 EGFR mutant cell (IC50, nM) WT. How it is done: (§1) In order to evaluate an inhibitory ability on wild-type Ba/F3 EGFR and Ba/F3 EGFR mutations in Ba/F3 cell lines by the compounds of Formula 1, the experiment was carried out as described below.
(§2) The measurement of activities on Ba/F3 cells harboring wild-type EGFR and EGFR mutants by the compounds of the present invention were determined utilizing the CELLTITER-GLO™ system from Promega, as follows. The CELLTITER-GLO™ assay is a method for measuring the ATP present in cells to determine the cell viability. Ba/F3 EGFR wild-type and Ba/F3 EGFR L858R/C797S (L/C), Ba/F3 EGFR L858R/T790M/C797S (L/T/C), Ba/F3 EGFR Del19/T790M (D/T), Ba/F3 EGFR Del19/C797S (D/C), Ba/F3 EGFR Del19/T790M/C797S (D/T/C) mutant cell lines were maintained in RPMI1640, containing […], 1% penicillin-streptomycin, […] puromycin. Cells were grown in a humidified incubator at 37° C. with […].
(§3) The analysis of an EGFR inhibitory activity by the compounds was carried out in accordance with the analysis reaction recipe below.
(§4) 2500 cells/90 μL were seeded in 96 well cell culture plate, and after 24 hours, treated with the compounds represented by Formula 1 in concentrations of 0, 0.3, 0.9, 2.7, 8.2, 24.7, 74.1, 222.2, 666.7, 2000 (nM). After the reaction of 72 hours, the plate was incubated for 30 minutes at ambient temperature, and then, was further treated with 100 μL of the CELLTITER-GLO™ reagent and was shaken for 10 minutes at ambient temperature. Finally, measurement of the luminescence values were obtained using the SPECTRAMAX™ iD3 (Molecular Devices), and the IC50 values of the compound were analyzed using the GraphPad Prism program (version 9.0.2, GraphPad Software, Inc.).
Background: Cellular ATP, detected with luciferase, serves as a proxy for viable cell number.

Test [2] addresses Ba/F3 EGFR L858R/C797S mutants (Homo sapiens, UniProt P00533, C797S/L858R, cells depend on it). The experiment in a line: CellTiter-Glo cell viability, Ba/F3 EGFR L858R/C797S cells. Conditions: 72 hours, read-out: Ba/F3 EGFR mutant cell (IC50, nM) L/C. How it is done: as §1, §2, §3, §4
The target of test [3] is Ba/F3 EGFR L858R/T790M/C797S mutants (Homo sapiens, UniProt P00533, T790M/C797S/L858R, cells depend on it). The experiment in a line: CellTiter-Glo cell viability, Ba/F3 EGFR L858R/T790M/C797S cells. Conditions: 72 hours, read-out: Ba/F3 EGFR mutant cell (IC50, nM) L/T/C. How it is done: as §1, §2, §3, §4
Test [4] concerns the target Ba/F3 EGFR Del19/T790M mutants (Homo sapiens, UniProt P00533, T790M, cells depend on it, form not given). The experiment in a line: CellTiter-Glo cell viability, Ba/F3 EGFR Del19/T790M cells. The note with it: 72 hours, read-out: Ba/F3 EGFR mutant cell (IC50, nM) D/T. How it is done: as §1, §2, §3, §4
The target of test [5] is Ba/F3 EGFR Del19/C797S mutants (Homo sapiens, UniProt P00533, C797S, cells depend on it, form not given). The experiment in a line: CellTiter-Glo cell viability, Ba/F3 EGFR Del19/C797S cells. Conditions: 72 hours, read-out: Ba/F3 EGFR mutant cell (IC50, nM) D/C. As for the experimental part: as §1, §2, §3, §4
The target in test [6] is Ba/F3 EGFR Del19/T790M/C797S mutants (Homo sapiens, UniProt P00533, T790M/C797S, cells depend on it, form not given). The experiment in a line: CellTiter-Glo cell viability, Ba/F3 EGFR Del19/T790M/C797S cells. Conditions: 72 hours, read-out: Ba/F3 EGFR mutant cell (IC50, nM) D/T/C. As for the experimental part: as §1, §2, §3, §4
Ba/F3 EGFR Del19/T790M/C797S mutants, sequence (P00533 with tags, fused parts or gaps DEL746-750/T790M/C797S, form open): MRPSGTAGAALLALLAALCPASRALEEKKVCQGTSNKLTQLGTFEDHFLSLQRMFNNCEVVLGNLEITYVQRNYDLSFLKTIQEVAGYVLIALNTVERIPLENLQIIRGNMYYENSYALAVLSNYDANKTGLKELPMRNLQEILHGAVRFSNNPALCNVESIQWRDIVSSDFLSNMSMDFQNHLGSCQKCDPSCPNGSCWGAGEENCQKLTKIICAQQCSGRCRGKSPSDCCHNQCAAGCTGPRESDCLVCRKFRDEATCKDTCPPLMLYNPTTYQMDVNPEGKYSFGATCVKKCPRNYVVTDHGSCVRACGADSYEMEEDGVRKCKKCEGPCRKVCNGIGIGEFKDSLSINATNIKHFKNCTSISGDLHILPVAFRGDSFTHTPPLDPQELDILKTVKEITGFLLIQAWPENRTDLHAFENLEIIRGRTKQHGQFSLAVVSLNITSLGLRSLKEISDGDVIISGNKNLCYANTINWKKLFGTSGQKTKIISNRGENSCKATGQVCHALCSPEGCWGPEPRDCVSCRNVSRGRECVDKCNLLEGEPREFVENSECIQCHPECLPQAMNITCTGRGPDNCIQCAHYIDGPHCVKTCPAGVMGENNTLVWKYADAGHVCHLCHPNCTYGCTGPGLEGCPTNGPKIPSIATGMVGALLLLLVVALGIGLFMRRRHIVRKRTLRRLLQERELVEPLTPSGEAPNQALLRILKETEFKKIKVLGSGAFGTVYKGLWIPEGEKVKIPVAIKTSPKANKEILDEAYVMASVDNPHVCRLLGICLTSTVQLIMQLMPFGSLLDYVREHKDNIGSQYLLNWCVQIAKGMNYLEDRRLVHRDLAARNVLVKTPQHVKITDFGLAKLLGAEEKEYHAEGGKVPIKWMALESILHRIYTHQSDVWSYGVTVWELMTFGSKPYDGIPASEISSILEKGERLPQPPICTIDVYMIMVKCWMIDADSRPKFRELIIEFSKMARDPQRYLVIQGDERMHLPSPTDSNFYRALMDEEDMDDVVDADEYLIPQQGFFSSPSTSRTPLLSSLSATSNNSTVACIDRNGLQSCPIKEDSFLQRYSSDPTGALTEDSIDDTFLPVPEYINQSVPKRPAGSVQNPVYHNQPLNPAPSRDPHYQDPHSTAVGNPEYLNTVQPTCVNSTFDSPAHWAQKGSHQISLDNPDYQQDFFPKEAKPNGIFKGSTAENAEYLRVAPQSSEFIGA

Ba/F3 EGFR L858R/T790M/C797S mutants, sequence (P00533 whole entry T790M/C797S/L858R): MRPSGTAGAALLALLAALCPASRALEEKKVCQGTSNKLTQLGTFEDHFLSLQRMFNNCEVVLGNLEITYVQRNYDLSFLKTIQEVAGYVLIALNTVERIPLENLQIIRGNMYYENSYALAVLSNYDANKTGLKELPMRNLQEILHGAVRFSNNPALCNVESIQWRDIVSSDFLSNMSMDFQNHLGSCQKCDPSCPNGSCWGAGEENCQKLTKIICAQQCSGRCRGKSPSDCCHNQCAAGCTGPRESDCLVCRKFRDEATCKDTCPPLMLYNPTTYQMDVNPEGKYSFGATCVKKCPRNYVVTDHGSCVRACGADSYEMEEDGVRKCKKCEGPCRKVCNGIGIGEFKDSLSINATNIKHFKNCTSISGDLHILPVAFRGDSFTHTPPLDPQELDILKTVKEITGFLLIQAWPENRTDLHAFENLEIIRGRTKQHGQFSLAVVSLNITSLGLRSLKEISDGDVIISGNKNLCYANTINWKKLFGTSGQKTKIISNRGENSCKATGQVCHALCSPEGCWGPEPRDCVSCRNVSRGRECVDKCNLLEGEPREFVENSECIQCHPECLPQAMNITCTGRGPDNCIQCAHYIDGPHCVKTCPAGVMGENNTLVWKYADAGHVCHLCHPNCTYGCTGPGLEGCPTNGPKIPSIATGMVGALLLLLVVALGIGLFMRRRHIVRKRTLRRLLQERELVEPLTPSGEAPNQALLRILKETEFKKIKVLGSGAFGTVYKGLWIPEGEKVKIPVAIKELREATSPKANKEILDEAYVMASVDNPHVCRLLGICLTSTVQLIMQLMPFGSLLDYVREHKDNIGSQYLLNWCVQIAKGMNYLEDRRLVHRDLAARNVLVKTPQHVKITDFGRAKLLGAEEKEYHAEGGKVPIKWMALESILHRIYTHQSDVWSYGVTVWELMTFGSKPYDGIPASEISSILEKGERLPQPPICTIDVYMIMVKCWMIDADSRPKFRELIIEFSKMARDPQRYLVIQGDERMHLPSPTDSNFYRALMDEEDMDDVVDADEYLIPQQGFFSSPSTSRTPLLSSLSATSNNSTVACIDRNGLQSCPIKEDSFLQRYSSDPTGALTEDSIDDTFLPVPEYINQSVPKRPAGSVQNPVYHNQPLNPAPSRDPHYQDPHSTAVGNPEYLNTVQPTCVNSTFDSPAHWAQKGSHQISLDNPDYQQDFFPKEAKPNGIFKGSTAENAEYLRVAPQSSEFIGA
Ba/F3 EGFR Del19/T790M mutants, sequence (P00533 with tags, fused parts or gaps DEL746-750/T790M, form open): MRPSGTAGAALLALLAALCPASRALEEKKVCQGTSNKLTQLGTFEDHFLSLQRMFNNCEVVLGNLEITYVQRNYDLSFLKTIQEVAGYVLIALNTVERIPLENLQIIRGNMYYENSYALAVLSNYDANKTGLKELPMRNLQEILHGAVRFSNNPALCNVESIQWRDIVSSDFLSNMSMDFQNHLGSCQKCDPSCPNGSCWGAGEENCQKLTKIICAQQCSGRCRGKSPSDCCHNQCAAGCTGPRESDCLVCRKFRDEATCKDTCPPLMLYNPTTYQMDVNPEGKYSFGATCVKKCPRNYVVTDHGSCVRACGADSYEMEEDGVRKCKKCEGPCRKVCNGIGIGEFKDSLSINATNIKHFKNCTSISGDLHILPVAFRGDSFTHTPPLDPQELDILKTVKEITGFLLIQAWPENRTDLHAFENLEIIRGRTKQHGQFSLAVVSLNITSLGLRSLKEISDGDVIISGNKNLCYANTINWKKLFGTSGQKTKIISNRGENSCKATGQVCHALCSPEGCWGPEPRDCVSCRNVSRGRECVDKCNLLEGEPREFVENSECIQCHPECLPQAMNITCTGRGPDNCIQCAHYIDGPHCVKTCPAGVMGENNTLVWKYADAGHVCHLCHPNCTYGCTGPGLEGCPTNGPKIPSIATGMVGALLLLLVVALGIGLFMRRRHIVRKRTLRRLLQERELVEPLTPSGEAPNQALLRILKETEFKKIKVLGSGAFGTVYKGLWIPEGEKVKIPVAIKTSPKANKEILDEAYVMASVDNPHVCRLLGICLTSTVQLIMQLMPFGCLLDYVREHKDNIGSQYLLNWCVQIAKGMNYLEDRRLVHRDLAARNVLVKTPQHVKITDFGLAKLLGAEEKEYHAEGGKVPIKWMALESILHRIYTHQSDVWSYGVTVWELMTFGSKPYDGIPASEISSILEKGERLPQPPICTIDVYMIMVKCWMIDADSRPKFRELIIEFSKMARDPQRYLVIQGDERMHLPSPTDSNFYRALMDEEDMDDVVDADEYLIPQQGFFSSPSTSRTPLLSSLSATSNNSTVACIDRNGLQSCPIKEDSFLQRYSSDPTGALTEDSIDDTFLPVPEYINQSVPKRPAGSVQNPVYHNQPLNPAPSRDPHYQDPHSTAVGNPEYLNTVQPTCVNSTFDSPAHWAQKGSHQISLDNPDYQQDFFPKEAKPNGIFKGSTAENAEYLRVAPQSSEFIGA
Ba/F3 EGFR Del19/C797S mutants, sequence (P00533 with tags, fused parts or gaps DEL746-750/C797S, form open): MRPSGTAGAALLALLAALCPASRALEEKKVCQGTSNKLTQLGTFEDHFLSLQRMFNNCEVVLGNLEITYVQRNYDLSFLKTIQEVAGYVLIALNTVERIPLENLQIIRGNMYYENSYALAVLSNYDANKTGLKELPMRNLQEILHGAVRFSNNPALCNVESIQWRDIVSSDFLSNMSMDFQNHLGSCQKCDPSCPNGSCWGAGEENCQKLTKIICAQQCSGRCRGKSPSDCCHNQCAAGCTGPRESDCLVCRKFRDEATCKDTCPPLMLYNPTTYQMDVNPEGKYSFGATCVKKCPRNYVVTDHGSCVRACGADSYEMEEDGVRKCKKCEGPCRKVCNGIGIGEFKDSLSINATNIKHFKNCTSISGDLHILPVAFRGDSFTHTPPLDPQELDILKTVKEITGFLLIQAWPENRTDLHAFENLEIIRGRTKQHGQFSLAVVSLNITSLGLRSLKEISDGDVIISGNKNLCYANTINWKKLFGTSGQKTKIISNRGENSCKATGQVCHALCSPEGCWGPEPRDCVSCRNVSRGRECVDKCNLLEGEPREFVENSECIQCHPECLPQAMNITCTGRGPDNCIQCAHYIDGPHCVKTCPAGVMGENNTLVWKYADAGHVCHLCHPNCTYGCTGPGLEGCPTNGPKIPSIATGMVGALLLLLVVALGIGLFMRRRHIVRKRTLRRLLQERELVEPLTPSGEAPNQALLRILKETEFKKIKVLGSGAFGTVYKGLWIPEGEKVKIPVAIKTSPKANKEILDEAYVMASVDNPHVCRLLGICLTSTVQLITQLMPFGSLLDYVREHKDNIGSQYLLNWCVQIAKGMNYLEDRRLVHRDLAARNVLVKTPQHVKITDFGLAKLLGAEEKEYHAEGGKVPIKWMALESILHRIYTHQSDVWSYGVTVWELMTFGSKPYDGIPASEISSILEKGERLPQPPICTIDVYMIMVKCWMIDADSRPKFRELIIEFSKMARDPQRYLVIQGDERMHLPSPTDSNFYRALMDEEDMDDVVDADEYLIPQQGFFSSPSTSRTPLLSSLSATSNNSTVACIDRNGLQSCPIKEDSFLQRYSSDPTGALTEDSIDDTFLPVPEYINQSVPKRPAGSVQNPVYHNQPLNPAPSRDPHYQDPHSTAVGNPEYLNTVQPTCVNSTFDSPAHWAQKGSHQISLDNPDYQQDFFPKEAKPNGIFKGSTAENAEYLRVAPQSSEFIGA

For the compound `CCCc1cc(Nc2ncc(Cl)c(Nc3cccc(OC)c3NS(C)(=O)=O)n2)c(OC)cc1N1CCC(N2CCOCC2)CC1` [Example C23, N-(2-((5-chloro-2-((2-methoxy-4-(4-morpholinopiperidin-1-yl)-5-propylphenyl)amino)pyrimidin-4-yl)amino)-6-methoxyphenyl)methanesulfonamide], the GI50 in test [1] was determined as 1680 nM; in test [2] it was 72 nM; in test [3], 137 nM; in test [4], 30 nM; in test [5], 14 nM; in test [6], 10 nM.

`CCc1cc(Nc2ncc(Cl)c(Nc3ccc4c(c3NS(C)(=O)=O)OCCO4)n2)c(OC)cc1N1CCC(N2CCOCC2)CC1` [Example C15, N-(6-((5-chloro-2-((5-ethyl-2-methoxy-4-(4-morpholinopiperidin-1-yl)phenyl)amino)pyrimidin-4-yl)amino)-2,3-dihydrobenzo[b][1,4]dioxin-5-yl)methanesulfonamide]: the GI50 in test [1] was 638 nM; in test [2], 44 nM; in test [3] it was 30 nM; in test [4], 8 nM; in test [5] it was 13 nM; in test [6], 14 nM.

For `CCCc1cc(Nc2ncc(Cl)c(Nc3cccc(OC)c3NS(C)(=O)=O)n2)c(OC)cc1N1CCC(N(C)C)CC1` [Example C19, N-(2-((5-chloro-2-((4-(4-(dimethylamino)piperidin-1-yl)-2-methoxy-5-propylphenyl)amino)pyrimidin-4-yl)amino)-6-methoxyphenyl)methanesulfonamide], the GI50 is 668 nM in test [1]; 30 nM in test [2]; 54 nM in test [3]; 9 nM in test [4]; 12 nM in test [5]; 7 nM in test [6].

Consider `CCS(=O)(=O)Nc1c(Nc2nc(Nc3cc(C)c(N4CCC(N5CCN(C)CC5)CC4)cc3OC)ncc2Cl)cccc1OC` [Example C16, N-(2-((5-chloro-2-((2-methoxy-5-methyl-4-(4-(4-methylpiperazin-1-yl)piperidin-1-yl)phenyl)amino)pyrimidin-4-yl)amino)-6-methoxyphenyl)ethanesulfonamide], for which the GI50 turned out to be 486 nM in test [1]; 51 nM in test [2]; 34 nM in test [3]; 6 nM in test [4]; 9 nM in test [5]; 10 nM in test [6].

With `COc1ccc(Nc2nc(Nc3cc(C)c(N4CCC(N5CCN(C)CC5)CC4)cc3OC)ncc2Cl)c(NS(C)(=O)=O)c1` [Example C26, N-(2-((5-chloro-2-((2-methoxy-5-methyl-4-(4-(4-methylpiperazin-1-yl)piperidin-1-yl)phenyl)amino)pyrimidin-4-yl)amino)-5-methoxyphenyl)methanesulfonamide], the GI50 in test [1] came out at 421 nM; in test [2], 35 nM; in test [3] it was 54 nM; in test [4] it was 8 nM; in test [5], 7 nM; in test [6], 5 nM.

As to `COc1cc(N2CCC(N3CCN(C)CC3)CC2)c(C)cc1Nc1ncc(Cl)c(Nc2cccc(OC)c2NS(C)(=O)=O)n1` [Example C24, N-(2-((5-chloro-2-((2-methoxy-5-methyl-4-(4-(4-methylpiperazin-1-yl)piperidin-1-yl)phenyl)amino)pyrimidin-4-yl)amino)-6-methoxyphenyl)methanesulfonamide], the GI50 in test [1] was determined as 605 nM; in test [2], 41 nM; in test [3], 83 nM; in test [4], 14 nM; in test [5], 6 nM; in test [6], 7 nM.

Regarding `CCc1cc(Nc2ncc(Cl)c(Nc3ccc4nccnc4c3NS(C)(=O)=O)n2)c(OC)cc1N1CCC(N2CCOCC2)CC1` [Example A29, N-(6-((5-chloro-2-((5-ethyl-2-methoxy-4-(4-morpholinopiperidin-1-yl)phenyl)amino)pyrimidin-4-yl)amino)quinoxalin-5-yl)methanesulfonamide], the GI50 in test [1] was 200 nM; in test [2], 79 nM; in test [3] it was 25 nM; in test [4], 13 nM; in test [5] it was 27 nM; in test [6], 69 nM.

Take `CCc1cc(Nc2ncc(Cl)c(Nc3ccc(OC)c(OC)c3N(C)S(C)(=O)=O)n2)c(OC)cc1N1CCC(N2CCOCC2)CC1` [Example C32, N-(6-((5-chloro-2-((5-ethyl-2-methoxy-4-(4-morpholinopiperidin-1-yl)phenyl)amino)pyrimidin-4-yl)amino)-2,3-dimethoxyphenyl)-N-methylmethanesulfonamide]: the GI50 was found to be 1920 nM in test [1]; 82 nM in test [2]; 191 nM in test [3]; 176 nM in test [4]; 79 nM in test [5]; 46 nM in test [6].

`CCc1cc(Nc2ncc(Cl)c(Nc3ccc4nccnc4c3N(C)S(C)(=O)=O)n2)c(OC)cc1N1CCC(N2CCOCC2)CC1` [Example A40, N-(6-((5-chloro-2-((5-ethyl-2-methoxy-4-(4-morpholinopiperidin-1-yl)phenyl)amino)pyrimidin-4-yl)amino)quinoxalin-5-yl)-N-methylmethanesulfonamide]: the GI50 worked out at 845 nM in test [1]; 50 nM in test [2]; 94 nM in test [3]; 10 nM in test [4]; 10 nM in test [5]; 12 nM in test [6].

Consider `COc1cc(N2CCC(N3CCN(C)CC3)CC2)c(C)cc1Nc1ncc(Br)c(Nc2cccc(OC)c2NS(C)(=O)=O)n1` [Example C1, N-(2-((5-bromo-2-((2-methoxy-5-methyl-4-(4-(4-methylpiperazin-1-yl)piperidin-1-yl)phenyl)amino)pyrimidin-4-yl)amino)-6-methoxyphenyl)methanesulfonamide], for which the GI50 was 408 nM in test [1]; 63 nM in test [2]; 12 nM in test [3]; 6 nM in test [4]; 18 nM in test [5]; 13 nM in test [6].

In the case of `COc1cc(C2CCN(C)CC2)ccc1Nc1ncc(Cl)c(Nc2ccc3nccnc3c2NS(C)(=O)=O)n1` [Example B23, N-(6-((5-chloro-2-((2-methoxy-4-(1-methylpiperidin-4-yl)phenyl)amino)pyrimidin-4-yl)amino)quinoxalin-5-yl)methanesulfonamide], the GI50 stood at 868 nM in test [1]; 302 nM in test [2]; 354 nM in test [3]; 154 nM in test [4]; 100 nM in test [5]; 112 nM in test [6].

For `COc1cc(N2CCC(N3CCN(C)CC3)CC2)c(C)cc1Nc1ncc(Cl)c(Nc2ccc3nccnc3c2NS(C)(=O)=O)n1` [Example A1, N-(6-((5-chloro-2-((2-methoxy-5-methyl-4-(4-(4-methylpiperazin-1-yl)piperidin-1-yl)phenyl)amino)pyrimidin-4-yl)amino)quinoxalin-5-yl)methanesulfonamide], the GI50 in test [1] was 312 nM; in test [2] it was 33 nM; in test [3], 17 nM; in test [4] it was 7 nM; in test [5], 17 nM; in test [6] it was 6 nM.

Consider `CCc1cc(Nc2ncc(Br)c(Nc3ccc4nccnc4c3N(C)S(C)(=O)=O)n2)c(OC)cc1N1CCC(N2CC3CCC2CN3C)CC1` (stereo not drawn) [Example A48, N-(6-((5-bromo-2-((5-ethyl-2-methoxy-4-(4-(5-methyl-2,5-diazabicyclo[2.2.2]octan-2-yl)piperidin-1-yl)phenyl)amino)pyrimidin-4-yl)amino)quinoxalin-5-yl)-N-methylmethanesulfonamide], for which the GI50 in test [1] is 601 nM; in test [2] it was 112 nM; in test [3], 28 nM; in test [4], 9 nM; in test [5], 6 nM; in test [6] it was 17 nM.
